{"source": "patent US20220273759A1", "about": "“PHARMACEUTICAL ASSOCIATION FOR CONVERTING A NEOPLASTIC CELL INTO A NON-NEOPLASTIC CELL AND USES THEREOF” (HISTIDE AG, priority 2015, published 2022)", "format_in_all_cases": "cell-based", "key": {"[1]": {"test_system": "human adenocarcinoma cells", "assay": "Recoding via quantification of pRB and P53, adenocarcinoma cells", "settings": "Table 6, peptide in association with PET", "procedure": "(§1) The cells were first fixed for 20 min with 4% paraformaldehyde/PBS at 4° C. After fixation, the cells were permeabilized in PBS containing 1% Triton X-100 for 15 min. Protein immunofluorescent visualization was performed by first treating the cells with 1% (v/v) specific monoclonal antibodies for 1 hour at 37° C. Then the samples were incubated with Alexa Fluor® 568 or 647 (F(ab′)2 fragment of IgG(H+L)) during 30 min at room temperature. The cell nuclei were counterstained in 20 ng/mL DAPI for 10 min at room temperature.\nFor this type of quantification the freeware image analysis ImageJ® software was used. The raw image was first converted to an 8-bit file, and then the unsharp mask feature was used (settings 1:0.2) to remove the image background (rolling ball radius 10). After smoothing, the resulting image, which appears similar to the original photomicrograph but with minimal background, was then converted to a binary image by setting a threshold. Threshold values were determined empirically by selecting a setting, which gave the most accurate binary image for a subset of randomly selected photomicrographs. The cell area was determined by manual delineation on raw fluorescent images. Total contact area and mean contact area per cell were calculated by “analyse particules” in ImageJ®. A minimum of 50 cells per condition were analyzed. […]"}, "[2]": {"test_system": "Smad1/5/8 signaling pathway", "assay": "Growth factor receptor activation: western blot quantification of phospho-smad1/5/8", "settings": "Table 4; human osteosarcoma cells MG63; quantification of western blots of phospho-smad1/5/8", "procedure": "After 24 hours of culture, cells were permeabilized (10% SDS, 25 mM NaCl, 10 nM pepstatin and 10 nM leupeptin in distilled water and loading buffer), boiled for 10 minutes and resolved by reducing PAGE (Invitrogen). Proteins were transferred onto nitrocellulose, blocked, and labeled with HRP-conjugated antibodies (Invitrogen). Integrin αv, α5, +3, α4, β1, β3, β5 and […] were blotted by treating the nitrocellulose with monoclonal anti-integrin (extracellular domain) αv, α5, +3, α4, β1, β3, β5 and β6 antibodies (Santa Cruz Biotechnology). Phosphor-Smad1/5/8 was blotted by treating the nitrocellulose with monoclonal anti-p-Smad1/5/8 (Santa Cruz Biotechnology). For all of the experiments the western blot was performed in triplicate, along with an additional blot for actin and coomassie blue staining to ensure constant protein load among samples."}, "[3]": {"test_system": "human osteosarcoma cells, MG63", "assay": "Tumor cell recoding via quantification of pRB and p53 (immunofluorescence staining, ImageJ)", "settings": "MG63, quantification of pRB", "procedure": "as §1\nFor this type of quantification the freeware image analysis ImageJ® software was used. The raw image was first converted to an 8-bit file, and then the unsharp mask feature was used (settings 1:0.2) to remove the image background (rolling ball radius 10). After smoothing, the resulting image, which appears similar to the original photomicrograph but with minimal background, was then converted to a binary image by setting a threshold. Threshold values were determined empirically by selecting a setting, which gave the most accurate binary image for a subset of randomly selected photomicrographs. The cell area was determined by manual delineation on raw fluorescent images. Total contact area and mean contact area per cell were calculated by “analyse particules” in ImageJ®. A minimum of 50 cells per condition were analyzed.\nNeoplastic cells (in this example osteosarcoma cells) were cultured on pharmaceutical associations comprising PET as a bioactive carrier and one of GFR-binding compounds of SEQ ID NO: 11 to 14, 24 to 26 and 51 to 63. A rapid (24 hours) decrease of the tumor markers was observed (FIG. 7). The adhesion checkpoint then activates the tumor suppressor proteins p53 and pRB. […]"}}}
{"sequence": "KIPKASSTQVRLRSVKTAKV (Non-cyclic GFR-binding peptide) [SEQ ID NO: 236]", "values": [{"measurement": "P53 (%)", "setting": "[1]", "value": 37, "unit": "%"}, {"measurement": "pRB (%)", "setting": "[1]", "value": 25, "unit": "%"}]}
{"sequence": "VPTGQSAISMLYL (Non-cyclic GFR-binding peptide) [SEQ ID NO: 95]", "values": [{"measurement": "p-Smad1/5/8 (%)", "setting": "[2]", "value": 52, "unit": "%"}, {"measurement": "pRB (%)", "setting": "[3]; Table 4", "value": 17, "unit": "%"}, {"measurement": "pRB (%)", "setting": "[3]; Table 5", "value": 17, "unit": "%"}]}
{"sequence": "RNVQSRPTQVQLSPISILFI (Non-cyclic GFR-binding peptide) [SEQ ID NO: 98]", "values": [{"measurement": "p-Smad1/5/8 (%)", "setting": "[2]", "value": 34, "unit": "%"}, {"measurement": "pRB (%)", "setting": "[3]; Table 4", "value": 17, "unit": "%"}, {"measurement": "pRB (%)", "setting": "[3]; Table 5", "value": 17, "unit": "%"}]}
{"sequence": "AASKASSSRVKMSPINVLYF (Non-cyclic GFR-binding peptide) [SEQ ID NO: 225]", "values": [{"measurement": "P53 (%)", "setting": "[1]", "value": 25, "unit": "%"}, {"measurement": "pRB (%)", "setting": "[1]", "value": 12, "unit": "%"}]}
{"sequence": "SIPKASSVPQELEPLPIVYY (Non-cyclic GFR-binding peptide) [SEQ ID NO: 76]", "values": [{"measurement": "p-Smad1/5/8 (%)", "setting": "[2]", "value": 54, "unit": "%"}, {"measurement": "pRB (%)", "setting": "[3]; Table 4", "value": 8, "unit": "%"}, {"measurement": "pRB (%)", "setting": "[3]; Table 5", "value": 8, "unit": "%"}]}
{"sequence": "RVPSTSSVPEKMEPLTMLYY (Non-cyclic GFR-binding peptide) [SEQ ID NO: 231]", "values": [{"measurement": "P53 (%)", "setting": "[1]", "value": 22, "unit": "%"}, {"measurement": "pRB (%)", "setting": "[1]", "value": 18, "unit": "%"}]}
{"sequence": "KIPKASSVPAQLEPLPIVYY (Non-cyclic GFR-binding peptide) [SEQ ID NO: 229]", "values": [{"measurement": "P53 (%)", "setting": "[1]", "value": 31, "unit": "%"}, {"measurement": "pRB (%)", "setting": "[1]", "value": 23, "unit": "%"}]}
{"sequence": "GIPEPSSAPVGQEPLPMVYY (Non-cyclic GFR-binding peptide) [SEQ ID NO: 230]", "values": [{"measurement": "P53 (%)", "setting": "[1]", "value": 30, "unit": "%"}, {"measurement": "pRB (%)", "setting": "[1]", "value": 19, "unit": "%"}]}
{"sequence": "VSQDLRSVKVAKV (Non-cyclic GFR-binding peptide) [SEQ ID NO: 89]", "values": [{"measurement": "p-Smad1/5/8 (%)", "setting": "[2]", "value": 36, "unit": "%"}, {"measurement": "pRB (%)", "setting": "[3]; Table 4", "value": 17, "unit": "%"}, {"measurement": "pRB (%)", "setting": "[3]; Table 5", "value": 17, "unit": "%"}]}
{"sequence": "ASAAPSSVPQALEPLTILYY (Non-cyclic GFR-binding peptide) [SEQ ID NO: 77]", "values": [{"measurement": "p-Smad1/5/8 (%)", "setting": "[2]", "value": 55, "unit": "%"}, {"measurement": "pRB (%)", "setting": "[3]; Table 4", "value": 15, "unit": "%"}, {"measurement": "pRB (%)", "setting": "[3]; Table 5", "value": 15, "unit": "%"}]}
{"sequence": "ASAAPSSVPQALSSLSILFF (Non-cyclic GFR-binding peptide) [SEQ ID NO: 67]", "values": [{"measurement": "p-Smad1/5/8 (%)", "setting": "[2]", "value": 38, "unit": "%"}, {"measurement": "pRB (%)", "setting": "[3]; Table 4", "value": 15, "unit": "%"}, {"measurement": "pRB (%)", "setting": "[3]; Table 5", "value": 15, "unit": "%"}]}
{"sequence": "ASAAPSSAPTALSATSVLYY (Non-cyclic GFR-binding peptide) [SEQ ID NO: 82]", "values": [{"measurement": "p-Smad1/5/8 (%)", "setting": "[2]", "value": 41, "unit": "%"}, {"measurement": "pRB (%)", "setting": "[3]; Table 4", "value": 19, "unit": "%"}, {"measurement": "pRB (%)", "setting": "[3]; Table 5", "value": 19, "unit": "%"}]}
{"sequence": "KIPKASSVPQELEPLPIVYY (Non-cyclic GFR-binding peptide) [SEQ ID NO: 74]", "values": [{"measurement": "p-Smad1/5/8 (%)", "setting": "[2]", "value": 44, "unit": "%"}, {"measurement": "pRB (%)", "setting": "[3]; Table 4", "value": 9, "unit": "%"}, {"measurement": "pRB (%)", "setting": "[3]; Table 5", "value": 9, "unit": "%"}]}
{"sequence": "ASAAPSSVPQALRSVKVAKV (Non-cyclic GFR-binding peptide) [SEQ ID NO: 88]", "values": [{"measurement": "p-Smad1/5/8 (%)", "setting": "[2]", "value": 37, "unit": "%"}, {"measurement": "pRB (%)", "setting": "[3]; Table 4", "value": 18, "unit": "%"}, {"measurement": "pRB (%)", "setting": "[3]; Table 5", "value": 18, "unit": "%"}]}
{"sequence": "ASASPSSVSQDLSSLSILFF (Non-cyclic GFR-binding peptide) [SEQ ID NO: 68]", "values": [{"measurement": "p-Smad1/5/8 (%)", "setting": "[2]", "value": 40, "unit": "%"}, {"measurement": "pRB (%)", "setting": "[3]; Table 4", "value": 14, "unit": "%"}, {"measurement": "pRB (%)", "setting": "[3]; Table 5", "value": 14, "unit": "%"}]}
{"sequence": "KIPKASSTPTELSPINMLYF (Non-cyclic GFR-binding peptide) [SEQ ID NO: 93]", "values": [{"measurement": "p-Smad1/5/8 (%)", "setting": "[2]", "value": 47, "unit": "%"}, {"measurement": "pRB (%)", "setting": "[3]; Table 4", "value": 7, "unit": "%"}, {"measurement": "pRB (%)", "setting": "[3]; Table 5", "value": 7, "unit": "%"}]}
{"sequence": "TQVKMRPVQVRKI (Non-cyclic GFR-binding peptide) [SEQ ID NO: 92]", "values": [{"measurement": "p-Smad1/5/8 (%)", "setting": "[2]", "value": 44, "unit": "%"}, {"measurement": "pRB (%)", "setting": "[3]; Table 4", "value": 8, "unit": "%"}, {"measurement": "pRB (%)", "setting": "[3]; Table 5", "value": 8, "unit": "%"}]}
{"sequence": "YVPKPSSAPTKLNAISVLYF (Non-cyclic GFR-binding peptide) [SEQ ID NO: 99]", "values": [{"measurement": "p-Smad1/5/8 (%)", "setting": "[2]", "value": 66, "unit": "%"}, {"measurement": "pRB (%)", "setting": "[3]; Table 4", "value": 21, "unit": "%"}, {"measurement": "pRB (%)", "setting": "[3]; Table 5", "value": 21, "unit": "%"}]}
{"sequence": "NDEGLESVPTEEEPLTILYY (Non-cyclic GFR-binding peptide) [SEQ ID NO: 79]", "values": [{"measurement": "p-Smad1/5/8 (%)", "setting": "[2]", "value": 58, "unit": "%"}, {"measurement": "pRB (%)", "setting": "[3]; Table 4", "value": 17, "unit": "%"}, {"measurement": "pRB (%)", "setting": "[3]; Table 5", "value": 17, "unit": "%"}]}
{"sequence": "TVPKPSSAPTQLRSVKVAKV (Non-cyclic GFR-binding peptide) [SEQ ID NO: 83]", "values": [{"measurement": "p-Smad1/5/8 (%)", "setting": "[2]", "value": 35, "unit": "%"}, {"measurement": "pRB (%)", "setting": "[3]; Table 4", "value": 12, "unit": "%"}, {"measurement": "pRB (%)", "setting": "[3]; Table 5", "value": 12, "unit": "%"}]}
{"sequence": "RVPSTSSAPTKTSATSVLYY (Non-cyclic GFR-binding peptide) [SEQ ID NO: 81]", "values": [{"measurement": "p-Smad1/5/8 (%)", "setting": "[2]", "value": 34, "unit": "%"}, {"measurement": "pRB (%)", "setting": "[3]; Table 4", "value": 17, "unit": "%"}, {"measurement": "pRB (%)", "setting": "[3]; Table 5", "value": 17, "unit": "%"}]}
